One data set has as its system Myzus persicae. In words: Myzus test (MYZUPE spray treatment). The data set is classed as in vivo. As for the experimental part: Myzus test (Myzupe spray treatment)
After 6 days, the efficacy in % is determined.
Myzus Test (MYZUPE Spray Treatment)

The test system of the next data set is Ctenocephalides felis. Kind of data set: Ctenocephalides felis oral (CTECFE). The format is in vivo. The procedure:
Ctenocephalides felis Oral (CTECFE)
Solvent: 1 part by weight of dimethyl sulphoxide
For the purpose of producing a suitable preparation of active compound, 10 mg of active compound are mixed with 0.5 ml of dimethyl sulphoxide. A portion of the concentrate is diluted with citrated cattle blood, and the desired concentration is prepared.
About 20 unfed adult fleas (Ctenocephalides felis) are placed into a chamber which is closed at the top and bottom with gauze. A metal cylinder whose bottom end is closed with parafilm is placed onto the chamber. The cylinder contains the blood/active compound preparation, which can be taken up by the fleas through the parafilm membrane. After 2 days, the kill in % is determined.
For the purpose of preparing an appropriate active compound formulation, 10 mg of active compound are mixed with 0.5 ml of dimethyl sulphoxide. A portion of the concentrate is diluted with citrated cattle blood, and the desired concentration is prepared.
About 20 unfed adult fleas (Ctenocephalides felis) are placed into a chamber which is closed at the top and bottom with gauze. A metal cylinder whose bottom end is closed with parafilm is placed onto the chamber. The cylinder contains the blood/active compound preparation, which can be taken up by the fleas through the parafilm membrane.

Another data set relates to Musca domestica. Kind of data set: Musca domestica test (MUSCDO). The format is in vivo. The procedure: Musca domestica Test (MUSCDO)
(§1) Solvent: dimethyl sulphoxide
Vessels containing a sponge treated with the active compound preparation of the desired concentration are populated with adult Musca domestica.
(§2) After 2 days, the kill in % is determined.
Vessels containing a sponge treated with the active compound formulation of the desired concentration are populated with adult Musca domestica.
After the desired period of time, the kill in % is determined.

Another data set relates to Boophilus microplus. In words: Boophilus microplus test (BOOPMI injection). The data set is classed as in vivo. The following applies: for % Activity dat: BOOPMI injection, 7 dat. The procedure: Boophilus microplus Test (BOOPMI Injection)
as §1
The active compound solution is injected into the abdomen (Boophilus microplus), and the animals are transferred into dishes and stored in a climate-controlled room. The activity is assessed by laying of fertile eggs.
The active compound solution is injected into the abdomen (Boophilus microplus), and the animals are transferred into dishes and stored in a climate-controlled room.
The activity is assessed by laying of fertile eggs. 100% means that none of the ticks has laid any fertile eggs.

Another data set has as its system Plutella xylostella. Kind of data set: Plutella xylostella spray test (PLUTMA). The format is in vivo. The settings on record: 168 h, 7 dat. From the text: Plutella xylostella Spray Test (PLUTMA)
(§3) Solvent: 7 parts by weight of dimethylformamide
(§4) Emulsifier: 2 parts by weight of alkylaryl polyglycol ether
(§5) If the addition of ammonium salts or/and penetrants is required, these are in each case added in a concentration of 1000 ppm to the solution of the preparation.

For data set [1], the system named is Spodoptera frugiperda. In words: Spodoptera frugiperda spray test (SPODFR), cotton leaves, ppm. The data set is classed as in vivo. The following applies: 168 h, 7 dat.
Text: Spodoptera frugiperda Spray Test (SPODFR)
as §3, §4, §5
Cotton leaves (Gossypium hirsutum) are sprayed with an active compound formulation of the desired concentration and populated with caterpillars of the armyworm (Spodoptera frugiperda).

Another data set concerns Heliothis armigera. Kind of data set: Heliothis armigera spray test (HELIAR). The data set is classed as in vivo. The settings on record: Helicoverpa armigera, 168 h, 7 dat.
Text: Heliothis armigera Spray Test (HELIAR)
as §3, §4, §5

The test system of data set [2] is Tetranychus urticae. In words: Tetranychus urticae spray test, OP-resistant (TETRUR), bean plants, ppm. The format is in vivo. The settings on record: 168 h, 7 dat.
Text: Tetranychus urticae Spray Test, OP-Resistant (TETRUR)
as §3, §4, §5

For a further data set, the system named is Nilaparvata lugens. Kind of data set: Nilaparvata lugens spray test (NILALU). The data set is classed as in vivo. The settings on record: 168 h, 7 dat.
Text: Nilaparvata lugens Spray Test (NILALU)
as §5

The subject of data set [3] is Frankliniella occidentalis. In words: Frankliniella occidentalis spray test (FRANOC). The settings on record: 168 h, 500 g/ha, 7 dat. The data set is classed as in vivo.
Text: Frankliniella occidentalis Spray Test (FRANOC)
as §5

The test system of data set [4] is Phaedon cochleariae. In words: Phaedon test (PHAECO spray treatment), Chinese cabbage leaf discs.
Data set [5] has as its system Spodoptera frugiperda. In words: Spodoptera frugiperda test (SPODFR spray treatment), maize leaf discs. The data set is classed as in vivo. The settings on record: application rate 500 g/ha; after 7 days. From the text:
Spodoptera frugiperda Test (SPODFR Spray Treatment)

The subject of data set [6] is Tetranychus urticae. In words: Tetranychus test, OP-resistant (TETRUR spray treatment), bean leaf discs. The format is in vivo. The settings on record: application rate 500 g/ha; after 6 days. The procedure: Tetranychus Test, OP-Resistant (TETRUR Spray Treatment)
After a time of 6 days, the efficacy in % is determined.

The subject of another data set is Lucilia cuprina larvae. In words: Lucilia cuprina test (LUCICU). The data set is classed as in vivo. The following applies: 100 ppm; after 2 days. The procedure: Lucilia cuprina Test (LUCICU)
as §1
Vessels containing horse meat treated with the active compound preparation of the desired concentration are populated with about 20 Lucilia cuprina larvae.
as §2

The test system of data set [7] is Boophilus microplus females of the SP-resistant Parkhurst strain. In words: Boophilus microplus test (DIP). The data set is classed as in vivo. The procedure: Boophilus microplus Test (DIP)
Test animals: adult engorged Boophilus microplus females of the SP-resistant Parkhurst strain
as §1
10 mg of active compound are dissolved in 0.5 ml of dimethyl sulphoxide. For the purpose of preparing a suitable formulation, the active compound solution is diluted with water to the concentration desired in each case.
This active compound preparation is pipetted into tubes. 8-10 ticks are transferred into a further tube with holes. The tube is immersed into the active compound formulation, and all ticks are completely wetted. After the liquid has rum off, the ticks are transferred to filter discs in plastic dishes and kept in a climatized room. The activity is assessed after 7 days by laying of fertile eggs. Eggs whose fertility is not outwardly visible are stored in glass tubes in a climate-controlled cabinet until the larvae hatch. An efficacy of 100% means that none of the ticks has laid any fertile eggs.
10 mg of active compound are dissolved in 0.5 ml of dimethyl sulphoxide. For the purpose of preparing a suitable formulation, the active compound solution is diluted with water to the concentration desired in each case (in ppm).
This active compound preparation is pipetted into tubes. 8-10 ticks are transferred into a further tube with holes. The tube is immersed into the active compound formulation, and all ticks are completely wetted. After the liquid has run out, the ticks are transferred onto filter discs in plastic dishes and stored in a climate-controlled room.
The activity is assessed after the desired time by laying of fertile eggs. Eggs whose fertility is not evident from the outside are kept in glass tubes in a climate-controlled cabinet until the larvae have hatched. An effect of 100% means that none of the ticks has laid any fertile eggs.

The test system of data set [8] is Phaedon cochleariae. In words: Phaedon cochleariae spray test (PHAECO), cabbage leaves, ppm. The data set is classed as in vivo. The settings on record: 168 h, 7 dat.
Text: Phaedon cochleariae Spray Test (PHAECO)
as §3, §4, §5

A short description of data set [9]: log P by HPLC, EEC Directive 79/831 Annex V.A8, method a). The settings on record: reversed-phase C18 HPLC column; cell marked a): HPLC, reversed-phase C18, acetonitrile/water with formic acid, gradient 10% to 95% acetonitrile. The data set is classed as physicochemical. The essentials: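 Reversed-phase C18 HPLC (50*4.6, 1.8 micron) per EEC Directive 79/831 Annex V.A8, acetonitrile/water with formic acid, gradient 10% to 95% acetonitrile over 4.25 min then 1.25 min hold; 55° C, 2.0 ml/min, with MS detection.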

The test system of another data set is Liriomyza trifolii. Kind of data set: Liriomyza trifolii spray test (LIRITR). The format is in vivo. The following applies: 168 h, 7 dat.
Text: Liriomyza trifolii Spray Test (LIRITR)
as §5

The mark [10] stands for this setting: Myzus persicae, 144 h, MYZUPE, 6 dat.

Results on 4 compounds are retold here after patent US9126945B2, “N-(3-carbamoylphenly)-1H-pyrazole-5-carboxamide derivatives and the use thereof for controlling animal pests” (BAYER INTELLECTUAL PROPERTY GMBH, priority 2011, dated 2015).

Take `Cn1nc(C(F)(F)C(F)(F)F)c(C(F)(F)F)c1C(=O)Nc1ccc(Cl)c(C(=O)NC2CC2c2ccccc2)c1` (centres unmarked) [Ik-47]: the inhibition at 500 g/ha in the data set with Myzus persicae (Myzus persicae, 144 h, MYZUPE, 500 g/ha, 6 dat) turned out to be 0%; in the data set on Nilaparvata lugens it was 0%; in data set [3] it was 0%. The inhibition at 20 ppm was 50% with Ctenocephalides felis (Ctenocephalides felis, po, 48 h, CTECFE, 20 ppm, 2 dat); 0% with Plutella xylostella; 0% in the data set on Spodoptera frugiperda [1]; 0% with Heliothis armigera (20 ppm); 30% in the data set on Tetranychus urticae [2] (20 ppm). Moreover, the inhibition at 100 ppm with Musca domestica (Musca domestica, 48 h, MUSCDO, 2 dat) turned out to be 0%. Moreover, the “% Activity dat” value in the data set with Boophilus microplus (0.8 μg/animal) is 50%. Further, the inhibition at 20 g/ha with Phaedon cochleariae [4] (Phaedon cochleariae, in Brassica rapa, foliar, 168 h, read-out: % Activity dat) stood at 0%.
In general, chromatographic logP refers to a lipophilicity value derived from retention on a column. Read a low chromatographic logP as lower lipophilicity. On to `CN(C(=O)c1c(C(F)(F)F)c(C(F)(F)C(F)(F)F)nn1C)c1ccc(Cl)c(C(=O)NC2(C#N)CC2)c1` [Example 8], for which the efficacy in % in the data set on Spodoptera frugiperda [5] is 100%; in the data set on Myzus persicae (application rate 500 g/ha, after 6 days), 100%; with Tetranychus urticae [6], 100%; in the data set with Phaedon cochleariae [4] (application rate 500 g/ha, after 7 days), 100%. This compound displayed an inhibition at 100 g/ha in the data set on Myzus persicae (setting [10]) of 100%. Moreover, in the data set with Ctenocephalides felis (100 ppm, after 2 days), the “kill in % (effect)” value stood at 100%. Further, the inhibition at 0.8 ppm in the data set with Ctenocephalides felis (Ctenocephalides felis, po, 48 h, CTECFE, 0.8 ppm, 2 dat) was found to be 90%; with Phaedon cochleariae [8] (0.8 ppm), 100%. The “kill in % (efficacy)” value in the data set on Lucilia cuprina larvae was 100%; in the data set on Musca domestica (100 ppm, after 2 days), 100%. Further, the “efficacy in % (laying of fertile eggs)” value is given as 100% in the data set with Boophilus microplus (20 μg/animal, after 7 days) and 100% in data set [7] (100 ppm, after 7 days). The “% Activity dat” value in the data set on Boophilus microplus (0.032 μg/animal) turned out to be 100%. Also, the inhibition at 20 ppm worked out at 100% in [7] (Rhipicephalus microplus, 168 h, BOOPMI DIP, 20 ppm, 7 dat); 100% with Plutella xylostella; 100% in the data set on Spodoptera frugiperda [1]. Moreover, the inhibition at 4 ppm with Tetranychus urticae [2] (4 ppm) stood at 95%. In data set [9], the chromatographic logP was found to be 3.21.
As for `Cn1nc(C(F)(F)C(F)(F)F)c(C(F)(F)F)c1C(=O)Nc1ccc(Cl)c(C(=O)NC2(C(F)(F)F)CC2)c1` [Ik-296, reference compound], the inhibition at 100 g/ha in the data set on Myzus persicae (setting [10]) was found to be 0%. Moreover, the inhibition at 500 g/ha is 0% with Nilaparvata lugens, 60% in data set [3] and 0% in the data set with Liriomyza trifolii.
Regarding `C[C@@H]1C[C@H]1NC(=O)c1cc(NC(=O)c2c(C(F)(F)F)c(C(F)(F)C(F)(F)F)nn2C)ccc1Cl` [Ik-280], the inhibition at 4 ppm in the data set with Phaedon cochleariae [8] (4 ppm) is 0%. Moreover, the inhibition at 20 ppm was 65% with Plutella xylostella and 40% in the data set with Spodoptera frugiperda [1]. This compound also gave an inhibition at 100 ppm with Heliothis armigera (100 ppm) of 0%. In the data set with Nilaparvata lugens (100 g/ha), this compound returned an inhibition at 100 g/ha of 0%.
